The text below walks through data of patent US20260061008A1, “METHODS OF INCREASING MESENCHYMAL STROMAL CELL BIOSYNTHESIS OF SPECIALIZED PRO-RESOLVING MEDIATORS AND METHODS OF USE” (University of Oregon, priority 2022, published 2026).

Assay [1] has as its system MSCs encapsulated in PEG-4MAL hydrogels. The experiment in a line: RvD1 ELISA of media from MSCs encapsulated in PEG-4MAL hydrogels and treated with DHA. It is filed as cell-based. As to conditions: 160 μM DHA, TCP and PEG-4MAL encapsulated MSCs. As to the method: MSCs were cultured in Tissue Culture Plastic (TCP) or encapsulated in PEG-4MAL hydrogels. The 20 kDa four-arm PEG-4MAL was sourced from Laysan Bio (Item #: 4arm-PEG-20K-5g). A solution of 4% w/v PEG in a 0.5 M (pH=7) MES buffer was prepared. The two peptides, RGD (GCGYGRGDSPG; SEQ ID NO: 1) for functionalization of the gel and VPM (GCRDVPMSMRGGDRCG; SEQ ID NO: 2) for crosslinking were also dissolved in the 0.5 M MES buffer. The hydrogels were prepared using a 2:1:1:1 volume ratio of PEG: RGD: cells/PBS: VPM. The 4% PEG translates to 2 mM in the hydrogel prepared from a 5 mM PEG stock solution. Based on the concentration of maleimides per PEG molecule (8 mM maleimide in 2 mM PEG-4MAL) the RGD concentration was 0.768 mM final concentration in the gel (from a 3.84 mM stock and accounting for ˜96% purity) and the VPM concentration required to cross-link the remaining maleimides in the PEG was 3.456 mM final in the gel (17.28 mM stock). […]
MSCs were treated with 160 μM DHA in the hydrogels in three different conditions. […] Samples of cell culture media were taken incrementally over a period of five days and Resolvin D1 levels were measured via ELISA assay. In addition, samples of the cell culture medium were taken 24 hours after treatment for each group and these samples were analyzed by LCMS (Wayne State University Lipidomics core facility).
In general terms: In an ELISA, binding on a coated surface is turned into a signal by an enzyme label.

A further assay relates to OA progression. As to conditions: mice, repeated intra-articular injections into knee joints; cited from earlier work.

Regarding `CC/C=C\C/C=C\C/C=C\C/C=C\C/C=C\C/C=C\CCC(=O)O` [DHA, docosahexaenoic acid], the “Duration of continued RvD1 production” value in assay [1] was “at least 120 hours”.

For `CC/C=C\C[C@H](O)/C=C/C=C\C=C\C=C\[C@@H](O)[C@@H](O)C/C=C\CCC(=O)O` [Resolvin D1], the OA progression result with OA progression was “attenuate OA progression”.
